Source: patent publication US9282759B2, “Composition including an unsaponifiable fraction” (LABORATOIRES EXPANSCIENCE, priority 2009, dated 2016)

Test system: PGE2 production of arthrosis chondrocytes
Assay: PGE2 production of arthrosis chondrocytes (radioimmunoassay of culture media, per μg DNA)
Type: cell-based, human
Conditions: 10 μg/ml of the composition in culture medium, 48 h, chondrocytes of osteoarthritis patients, compared with basal conditions (9±4 pg PGE2 per μg DNA)
Experimental: Thin slices of cartilage of patients suffering from osteoarthritis were excised while avoiding the calcified layer. They were washed several times in DMEM medium containing HEPES, penicillin and streptomycin. The slices of cartilage were then cut into small fragments of a few cubic millimeters.
Chondrocytes were then isolated from the extracellular matrix by a succession of enzymatic digestions. The cartilage fragments were incubated at 37° C. under constant agitation in the basic medium with, successively, hyaluronidase, pronase E and finally with clostridial collagenase.
The cells were then filtered through a 70 μm nylon membrane, washed with DMEM and counted using a Neubauer plate. […]
The cultures were maintained at 37° C. in an atmosphere of 95% air and 5% CO2. At the end of the incubation period, the culture media were taken and stored at −20° C. until they were analysed. […]
Deoxyribonucleic acid (DNA) was quantified according to the technique of Labarca and Paigen (Labarca C. and Paigen K. A simple, rapid, and sensitive DNA assay procedure, Anal Biochem, 1980. 102: 344-52). This method is based on the principle of fluorescence emitted by a reagent, bis-benzimidazole, when it binds to DNA. […] After 1 h of incubation, the samples were read with a fluorometer using an excitation wavelength of 356 nm and an emission wavelength of 458 nm. […]

Substance: vitamin K2 [composition 4]
- quantity of PGE2 produced: remains constant
